Experimental data published in patent US20100247617A1, “Transdermal Administration Of (2S)-(4E)-N-Methyl-5-(3-(5-Isopropoxypyridin)yl)-4-Penten-2-Amine” (TARGACEPT, INC., priority 2007, published 2010).

What was measured:
[1] = In vitro skin penetration study using pig-ear (Bronaugh diffusion cells); format: in vitro ADME; details: receiver PBS pH 7.4, 32° C.; for Cumulative penetrated amount: 24-hour period, pig-ear skin; for Steady state flux: pig-ear skin approx. 900 μm, average ± SD
Experimental: Bronaugh diffusion cells were used for in vitro penetration studies, which were carried out to determine the flux (i.e. the speed by which the compound penetrates skin) and total cumulated amount penetrated of ^14C-active ingredient. The compound was dissolved in water at two concentrations, 35 and 135 mg/g. Pig-ear full-thickness skin (dermatomed to approx. 900 μm thick) was used as the membrane. The receiver compartment contained phosphate buffered saline (pH 7.4) and the temperature was maintained at 32° C. The compound solutions were applied onto the stratum corneum. Receiver compartment samples (2, 4, 8 12 and 14 h) were assayed by liquid scintillation counting. The transdermal flux (μg/cm^2/h) can be determined from the steady-state slope of the plot of the cumulative amount of active ingredient permeating through the skin versus time. After steady-state was established, the linear portion of the plot was used to calculate the flux from the slope.
The cumulative penetrated amounts and derived steady state fluxes for both tested concentrations during a 24-hour period are presented in FIG. 1 and TABLE 1.

[2] = Maximal solubility in water; format: physicochemical
[3] = test concentration 35 mg/g water
[4] = test concentration 135 mg/g water

- Cumulative penetrated amount [1, 3]: 27 ± 36 μg/cm^2
- Steady state flux [1, 3]: 2.6 ± 3.6 μg/cm^2/h
- Cumulative penetrated amount [1, 4]: 55 ± 88 μg/cm^2
- Steady state flux [1, 4]: 5.1 ± 9.0 μg/cm^2/h
- maximal solubility in water [2]: 200 mg/g
SMILES: CN[C@@H](C)C/C=C/c1cncc(OC(C)C)c1 [active ingredient, (2S)-(4E)-N-methyl-5-(3-(5-isopropoxypyridin)yl)-4-penten-2-amine]
